From US12139470B2, “Trioxolane agents” (The Regents of the University of California, priority 2017, dated 2024)
Converted amounts (≈) assume the structure as drawn. Read-outs that look alike come from different tables or passages of the source.

Columns and labels:
Plasmodium berghei [1] = test: Plasmodium berghei mouse malaria model (Peters test, cures at 30 days); format: in vivo; settings: po, 720 h; for responders at 4 mg/kg: Table 6, 4 mg/kg
From the text: The suppressive 4-day “Peters test” ^27 involving P. berghei infected mice provides a convenient and cost effective means to assess the overall in vivo performance of pre-clinical antimalarials. […] Mice were followed for 30 days and judged to have been cured of the infection based on the lack of detectable parasitemia at the end of the study.
Female Swiss Webster Mice (average of 20 g body weight) were infected intraperitoneally with 10^6 Plasmodium berghei-infected erythrocytes collected from a previously infected mouse. […] There were five mice in each test arm. Infections were monitored by daily microscopic evaluation of Giemsa-stained blood smears starting on day seven. Parasitemia were determined by counting the number of infected and uninfected erythrocytes. Body weight was measured over the course of the treatment. […] Animal survival and morbidity were closely monitored for up to 30 days post-infection when the experiment was terminated. In some cases survival is expressed as a PD100 or PD50, the dose that produces respectively 100% or 50% cures in treated animals at 30 days post infection.

[2] = system: K13 revertant strain bearing the wild type K13 allele; settings: pulsed exposure; cited from earlier work
[3] = system: clinical K13-mutant strain; settings: pulsed exposure; cited from earlier work
[4] = Kinetic solubility in PBS; format: physicochemical; settings: kinetic solubility in PBS (pH = 7.4), final DMSO 5%, average of three determinations
[5] = Mouse liver microsome assay (half-life, intrinsic clearance); settings: for T1/2: half-life when incubated with mouse liver microsomes
From the text: A second hypothesis regarding trans-R^A substitution (R^A in Scheme 1) was that the resulting de-symmetrized molecular topology would impact the vivo PK/PD properties of these analogs. […] To explore possible metabolic differences, we evaluated selected analogs with mouse liver microsomes and derived intrinsic clearance (CLint) values (Table 1).

Plasmodium berghei [6] = test: Plasmodium berghei mouse malaria model (Peters test, cures at 30 days); format: in vivo; settings: po, 720 h, oral gavage, read-out: Mice Cured (%)
[7] = system: Plasmodium falciparum: strain W2; test: Plasmodium falciparum growth inhibition assay (EC50 determinations); format: cell-based; settings: W2 strain of P. falciparum
Protocol: The growth inhibition assay for P. falciparum was conducted as described previously^29 with minor modifications. […] Following 48 hours of incubation, the cells were fixed by adding 0.1 ml of 2% formaldehyde in phosphate buffered saline, pH=7.4 (PBS). […] Parasitemias were determined from dot plots (forward scatter vs. fluorescence) using [sequence] software (Becton Dickinson). EC50 values for growth inhibition were determined from plots of percentage control parasitemia over inhibitor concentration using GraphPad Prism software.

PC3 tumor = test: Biodistribution of 18F probes in PC3 tumor-bearing mice; format: in vivo, mouse
Protocol: FIG. 6. B9[^18F] biodistribution in PC3-bearing mice. An intravenous injection of 300 μCi was given at the tail vein of each mouse. At 30, 60 and 90 minutes post-injection, mice were sacrificed and their organs collected. […] FIG. 7. B9[^18F] biodistribution in PC3-bearing mice. An intravenous injection of 300 μCi was given at the tail vein of mice containing either a subcutaneous PC3 tumor or a renal capsule PC3 tumor. At 60 minutes post-injection, mice were sacrificed and their organs collected. […] FIG. 8. B20[^18F] biodistribution in PC3 tumor-bearing nude mice: An intravenous injection of 300 μCi was given at the tail vein of each mouse. At 60 and 90 minutes post-injection, mice were sacrificed and their organs collected. The radioactivity in the tumor appears to be stable at about 0.3% id/gram.

[8] = clinical setting; cited from earlier work
[9] = Table 4, 4 mg/kg/day, once a day for four days, oral gavage, read-out: Mice Cured (%)
[10] = Table 4, 6 mg/kg/day, once a day for four days, oral gavage, read-out: Mice Cured (%)

Row | Compound | responders at 4 mg/kg/day (Plasmodium berghei [1]; [9]) [%] | responders at 6 mg/kg/day (Plasmodium berghei [1]; [10]) [%] | T1/2 [5] [h] | CLint ([5]; mouse, microsomes) | T1/2 (min) No NADPH ([5]; mouse, microsomes) | further results
1 | c1cc([C@H]2CC[C@]3(CC2)OO[C@]2(O3)C3CC4CC(C3)CC2C4)ccc1OCCN1CCOCC1 [3Z (artefenomel)] |  |  |  |  |  | responders at 40 mg/kg (Plasmodium berghei [1]; read-out: Mice Cured (%), Table 7, 40 mg/kg, 1 dose, oral gavage): 100%; responders at 80 mg/kg (Plasmodium berghei [1]; read-out: Mice Cured (%), Table 7, 80 mg/kg, 1 dose, oral gavage): 100%
2 | c1cc([C@H]2CC[C@]3(CC2)OO[C@]2(O3)C3CC4CC(C3)CC2C4)ccc1OCCN1CCOCC1 [3Z, artefenomel] |  |  |  |  |  | time to reduce early ring viability by 50% (t50) [2]: ~2 h; time to reduce early ring viability by 50% (t50) [3]: ~5 h
3 | CC(C)(N)CNC(=O)C[C@@H]1CCC[C@]2(C1)OOC1(O2)C2CC3CC(C2)CC1C3 (stereo partly drawn) [12a, N-(2-Amino-2-methylpropyl)-2-((R,R)-dispiro[adamantane-2,3′-[1,2,4]trioxolane-5′,1″-cyclohexan]-3″-yl)acetamide] | 60 | 100 | 2.82 | 4.1 μL/min/mg of protein | stable | Solubility [4]: 429 µM (≈ 168 µg/mL); responders at 9.5 mg/kg/day (Plasmodium berghei [1]; Table 2, free base, 9.5 mg/kg/day, once a day for four days, oral gavage, no parasitemia at 30 days, read-out: Mice Cured (%)): 100%; responders at 13.6 mg/kg/day (Plasmodium berghei [1]; Table 2, tosylate salt, 13.6 mg/kg/day, once a day for four days, oral gavage, no parasitemia at 30 days, read-out: Mice Cured (%)): 100%; responders at 1 mg/kg/day (Plasmodium berghei [1]; Table 3, free base, 1 mg/kg/day, four daily doses, oral gavage, read-out: Mice Cured (%)): 0%; responders at 4 mg/kg/day (Plasmodium berghei [1]; Table 3, free base, 4 mg/kg/day, four daily doses, oral gavage, read-out: Mice Cured (%)): 0%; responders at 6 mg/kg/day (Plasmodium berghei [1]; Table 3, free base, 6 mg/kg/day, four daily doses, oral gavage, read-out: Mice Cured (%)): 60%; responders at 10 mg/kg/day (Plasmodium berghei [1]; Table 3, free base, 10 mg/kg/day, four daily doses, oral gavage, read-out: Mice Cured (%)): 100%
4 | NC(=O)CNC(=O)C[C@@H]1CCC[C@]2(C1)OOC1(O2)C2CC3CC(C2)CC1C3 (stereo partly drawn) [12b, N-(2-Amino-2-oxoethyl)-2-((R,R)-dispiro[adamantane-2,3′-[1,2,4]trioxolane-5′,1″-cyclohexan]-3″-yl)acetamide] |  |  | 0.622 | 18.6 μL/min/mg of protein | stable | 
5 | NCCNC(=O)C[C@@H]1CCC[C@]2(C1)OOC1(O2)C2CC3CC(C2)CC1C3 (stereo partly drawn) [12c, N-(2-Aminoethyl)-2-((R,R)-dispiro[adamantane-2,3′-[1,2,4]trioxolane-5′,1″-cyclohexan]-3″-yl)acetamide] | 100 | 100 | 1.41 | 8.2 μL/min/mg of protein |  | responders at 0.5 mg/kg/day (Plasmodium berghei [1]; Table 5, 0.5 mg/kg/day, once a day for four days, oral gavage, read-out: Mice Cured (%)): 0%; responders at 1 mg/kg/day (Plasmodium berghei [1]; Table 5, 1 mg/kg/day, once a day for four days, oral gavage, read-out: Mice Cured (%)): 0%; responders at 2 mg/kg/day (Plasmodium berghei [1]; Table 5, 2 mg/kg/day, once a day for four days, oral gavage, read-out: Mice Cured (%)): 0%; responders at 4 mg/kg/day (Plasmodium berghei [1]; Table 5, 4 mg/kg/day, once a day for four days, oral gavage, read-out: Mice Cured (%)): 100%; responders at 4 mg/kg (Plasmodium berghei [1]; 1 dose, oral gavage, read-out: Mice Cured (%)): 0%; responders at 4 mg/kg (Plasmodium berghei [1]; 2 daily doses, oral gavage, read-out: Mice Cured (%)): 0%; responders at 4 mg/kg (Plasmodium berghei [1]; 4 daily doses, oral gavage, read-out: Mice Cured (%)): 100%; responders at 40 mg/kg (Plasmodium berghei [1]; Table 7, 40 mg/kg, 2 doses, oral gavage, read-out: Mice Cured (%)): 100%; responders at 4 mg/kg (Plasmodium berghei [6]; Table 6, 4 mg/kg, 3 daily doses): 20%; responders at 40 mg/kg (Plasmodium berghei [6]; Table 7, 40 mg/kg, 1 dose): 0%; responders at 80 mg/kg (Plasmodium berghei [6]; Table 7, 80 mg/kg, 1 dose): 20%; T1/2 (min) No NADPH ([5]; mouse liver microsomes, no NADPH): 136 min
6 | CC(C)(CN)CNC(=O)C[C@@H]1CCC[C@]2(C1)OOC1(O2)C2CC3CC(C2)CC1C3 (stereo partly drawn) [12d, N-(3-Amino-2,2-dimethylpropyl)-2-((R,R)-dispiro[adamantane-2,3′-[1,2,4]trioxolane-5′,1″-cyclohexan]-3″-yl)acetamide] | 0 | 0 | 1.07 | 10.8 μL/min/mg of protein | stable | 
7 | O=C(C[C@@H]1CCC[C@]2(C1)OOC1(O2)C2CC3CC(C2)CC1C3)N1CCOCC1 (stereo partly drawn) [12f, 2-((R,R)-Dispiro[adamantane-2,3′-[1,2,4]trioxolane-5′,1″-cyclohexan]-3″-yl)-1-morpholinoethan-1-one] | 0 | 0 |  |  |  | potency of 12f relative to regioisomer 2f [7]: three-fold more potent than 2f
8 | O=C(C[C@@H]1CCC[C@]2(C1)OOC1(O2)C2CC3CC(C2)CC1C3)N1CCNCC1 (stereo partly drawn) [12g, 2-((R,R)-Dispiro[adamantane-2,3′-[1,2,4]trioxolane-5′,1″-cyclohexan]-3″-yl)-1-(piperazin-1-yl)ethan-1-one] | 0 | 20 | 0.425 | 27.2 μL/min/mg of protein | stable | 
9 | CN1CCN(C(=O)C[C@@H]2CCC[C@]3(C2)OOC2(O3)C3CC4CC(C3)CC2C4)CC1 (stereo partly drawn) [12h, 2-((R,R)-Dispiro[adamantane-2,3′-[1,2,4]trioxolane-5′,1″-cyclohexan]-3″-yl)-1-(4-methylpiperazin-1-yl)ethan-1-one] | 0 | 0 |  |  |  | 
10 | NC1CCN(C(=O)C[C@@H]2CCC[C@]3(C2)OOC2(O3)C3CC4CC(C3)CC2C4)CC1 (stereo partly drawn) [12i, 1-(4-Aminopiperidin-1-yl)-2-((R,R)-dispiro[adamantane-2,3′-[1,2,4]trioxolane-5′,1″-cyclohexan]-3″-yl)ethan-1-one] |  |  | 1.41 | 8.2 μL/min/mg of protein | stable | 
11 | N[C@H]1CC[C@H](NC(=O)C[C@@H]2CCC[C@]3(C2)OOC2(O3)C3CC4CC(C3)CC2C4)CC1 (stereo partly drawn) [12j, N-((trans)-4-Aminocyclohexyl)-2-((R,R)-dispiro[adamantane-2,3′-[1,2,4]trioxolane-5′,1″-cyclohexan]-3″-yl)acetamide] | 60 | 100 |  |  |  | 
12 | O=C(NCCCNC(=O)C12CC3CC(C1)[C@]1(OO[C@]4(CC[C@@H](c5ccc(OCCN6CCOCC6)cc5)CC4)O1)C(C3)C2)c1ccc(F)cc1 [B9[^18F], N-(3-(4-[^18F]fluorobenzamido)propyl)-4″-(4-(2-morpholinoethoxy)phenyl)dispiro[adamantane-2,3′-[1,2,4]trioxolane-5′,1″-cyclohexane]-5-carboxamide] |  |  |  |  |  | biodistribution, subcutaneous vs renal capsule PC3 tumor (PC3 tumor; 300 μCi i.v. tail vein, 60 minutes post-injection): no major differences noticed between the two xenograft models; radioactivity in the tumor (PC3 tumor; PC3-bearing mice, 300 μCi i.v. tail vein, 30, 60 and 90 minutes post-injection): up to 4 % id/gram
13 | CC(C)(N)CNC(=O)C[C@H]1CC[C@]2(CC1)OO[C@]1(O2)C2CC3CC1CC(C(=O)NCCCNC(=O)c1ccc(F)cc1)(C3)C2 [B20[^18F], (1R,2r,3S,4″S,5S,5′s,7S)-4″-(2-((2-amino-2-methylpropyl)amino)-2-oxoethyl)-N-(3-(4-^18F-fluorobenzamido)propyl)dispiro[adamantane-2,3′-[1,2,4]trioxolane-5′,1′″-cyclohexane]-5-carboxamide] |  |  |  |  |  | radioactivity in the tumor (PC3 tumor; PC3 tumor-bearing nude mice, 300 μCi i.v. tail vein, 60 and 90 minutes post-injection): about 0.3 % id/gram
14 | C[C@H]1[C@@H](O)O[C@@H]2O[C@@]3(C)CC[C@H]4[C@H](C)CC[C@@H]1[C@@]24OO3 [DHA, dihydroartemisinin] |  |  |  |  |  | half-life [8]: ~1 h
15 | Cc1ncc2n1-c1ccc(Cl)cc1C(c1ccccc1F)=NC2 [midazolam] |  |  | 0.0275 |  |  | CLint ([5]; mouse liver microsomes, CLint = Ln(2)*1000/T1/2/protein concentration): 420 μL/min/mg of protein
16 | C[C@]12CC[C@H]3[C@@H](CCC4=CC(=O)CC[C@@]43C)[C@@H]1CC[C@@H]2O [testosterone] |  |  |  |  |  | Solubility [4]: 315 µM (≈ 90.9 µg/mL)
